Source: US10294272B2, “Peptides with antagonistic activities against natural CXCR4” (Pharis Biotec GmbH, priority 2013, dated 2019)
No end group written: not given here.

Experiments:
other GPCRs = assay: GPCR antagonist screen; conditions: selectivity for CXCR4
Text: GPCR Antagonist Screen of the Peptide of SEQ ID NO 16

Jurkat T cells = assay: CXCL12-induced migration of Jurkat T cells; assay type: cell-based
Protocol: Migration of Jurkat cells (ATCC) was analyzed using 6.5 mm diameter chambers with 5 μm pore filters (Transwell, 24-well cell culture, Coster, Boston, Mass.). 2×10^5 Jurkat cells were suspended in 200 μl Optimizer T-Cell Expansion SFM, and the cell suspensions were added to the upper chamber. Then, 10 nM CXCL12 (R&D System) and/or various concentrations of the peptide of SEQ ID NO 16 or its derivatives in 600 μl T-Cell Expansion SFM were added to the lower chamber. The cell culture chambers were incubated for 150 min in a cell culture incubator at 37° C. After incubation, chambers were removed, 100 μl of supernatants were taken and cells that migrated into the lower compartment were either counted directly using a hemocytometer or analyzed using the CellTiter-Glo Luminescent Cell Viability Assay as described above. All values represent mean numbers of migrated cells relative to CXCL12 only treated cells from a triplicate experiment±SD.

[1] = Transplantation of mobilized cells; assay type: in vivo
Protocol: […] animals were injected with the peptide of SEQ ID NO 16 (2 mg i.p in saline) or controls saline. Peripheral blood was individually harvested 1 hour post injection, counted, combined and competitively transplanted (660 μl blood equivalent) alongside 4×10^5 C57BL/6 CD45.1 BM cells into C57BL/6 Cd45.1 recipients.

Candida albicans = assay: Antifungal activity against Candida; assay type: cell-based
[2] = test system: wild-type (wt) HIV-1 NL4-3 in PBMCs; assay: PBMC infection assay; assay type: cell-based; conditions: concentrations ≥4 μg/ml
Protocol: Peripheral blood mononuclear cells were isolated from Buffy coat derived from the DRK-Blutspendedienst Baden-Württemberg-Hessen using Ficoll density centrifugation. 1×10^6 PBMC per ml were stimulated with 1 μg/ml phytohemagglutinine (PHA, Oxoid, #3085280) and 10 ng/ml Interleukin 2 (IL-2, Strathmann, #9511192) for three days. Thereafter, cells were pelleted and resuspended in IL-2 containing medium. 2×10^5 PBMC were seeded in 96 well F-bottom microtiter plates, peptides were added and cells were infected with […] p24 antigen of X4 or R5 tropic viruses. Supernatants containing progeny virus were taken at every 2-3 days post infection. Virus production was measured by p24 antigen ELISA (NIH AIDS reagent program). The mean p24 antigen values (ng/ml) were derived from triplicate infections±standard deviation.

[3] = test system: TZM-bl cells or prestimulated PBMCs
Protocol: To assess cytotoxic effects TZM-bl cells or prestimulated PBMCs were incubated with increasing concentrations of peptides. Cell viability was determined using the CellTiter-Glo Luminescent Cell Viability Assay (PROMEGA, G7571) as recommended by the manufacturer. Values were derived from triplicate measurements. Vitality rates were calculated relative to ATP levels in PBS (no peptide) containing cells (100%). Data were recorded using a luminometer 10 minutes after adding reagent.

SIV strains = assay: TZM-bl infection assay, SIV; assay type: cell-based; conditions: effects relatively modest
Protocol: HIV-1, HIV-2 and SIV molecular clones differing in coreceptor tropism were generated by transient transfection of 293T cells with proviral DNA by the calcium phosphate method (CalPhos™ Mammalian Transfection Kit, Clon-tech). After overnight incubation, the transfection mixture was replaced by DMEM medium supplemented with 10% FCS, and virus stocks were harvested 48 hrs post-transfection. Subsequently, the culture supernatant was centrifuged for 5 min at 3000 rpm to remove cell debris. The resulting virus stock was quantified by p24 (HIV) or p27 (SIV) antigen ELISA. Virus stocks were either used immediately or stored in aliquots at −80° C.
TZM-bl reporter cells containing the LacZ reporter gene under the control of the HIV-1 promoter were seeded in 96-well F-bottom microtiter plates (Greiner Bio-One). On the following day, the cells were preincubated with various dilutions of the peptide of SEQ ID NO 16 or its derivatives for 1 hour and subsequently infected with HIV-1, HIV-2, and SIV. Infection rates were determined after 2 days using the one-step Tropix Gal-Screen Kit, as recommended by the manufacturer.

LVRYTKKVPQVSTPTL [Derivative 408-423, LVRYTKKVPQVSTPTL]
activity of a large number of other GPCRs (other GPCRs): not affected | CXCL12-induced migration of Jurkat T cells (Jurkat T cells): suppressed | engraftment rates after transplantation of cells from treated mice [1]: increased engraftment rates | effects against Candida albicans (Candida albicans): only modest effects | Replication of wild-type HIV-1 NL4-3 in PBMCs [2]: markedly suppressed | cytotoxic effects [3]: did not display cytotoxic effects | infection by SIV strains (SIV strains): inhibits infection
